Results taken from paper PMC6745035, “Novel tetrahydroacridine derivatives with iodobenzoic moieties induce G0/G1 cell cycle arrest and apoptosis in A549 non-small lung cancer and HT-29 colorectal cancer cells” (Molecular and Cellular Biochemistry, 2019).
Where two headings read alike, the source gives them in different places.

Experiments:
[1] = tested on: γ-H2AX; experiment: Western blot of γ-H2AX, HT-29; type: cell-based, human; details: HT-29, 24 h, IC50 and 1/2IC50
Procedure: (§1) Then, cells were treated with chosen compounds. After 24 h of incubation, monolayer and supernatant were harvested and washed in cold PBS. Cells were centrifuged—monolayer at 1200 rpm for 10 min, supernatant 3500 rpm for 10 min. Pellets were dissolved in RIPA Lysis and Extraction buffer (Bio-Rad) containing Phosphatase Inhibitor Cocktail 3 (Sigma Aldrich) and Protease Inhibitor Cocktail (Sigma Aldrich). Samples were incubated in ice for 30 min and mixed every 10 min. Then, samples were centrifuged at 12,000 rpm for 25 min. Protein concentration in supernatants was measured in triplicate using a Protein Assay (Bio-Rad). Proteins were separated by SDS–polyacrylamide gel electrophoresis. Separating and stacking gels were made of different ratios of water, Tris–HCl pH 6.8 and pH 8.8, 10% SDS (Sigma Aldrich), Acrylamide/bis-acrylamide (Sigma Aldrich), 10% APS (Sigma Aldrich), TEMED (Sigma Aldrich). 7.5% gels were prepared for analysis PARP-1, whereas 12% gels prepared for γ-H2AX. After separation on SDS–polyacrylamide gels, proteins were electroblotted on nitrocellulose membrane in Transfer Buffer (Glycine, Tris, Methanol). Membranes were washed in TBS/0.1% or 0.05% Tween20 solution and blocked in Tris-buffered saline with 5% of non-fated dried milk for 1 h. Membranes were then incubated overnight with primary antibodies—anti-PARP-1 (Cell Signaling Technology), anti-γ-H2A.X (Cell Signaling Technology), anti-β-actin (Cell Signaling Technology) in cold room (6 °C). After incubation, membranes well washed with TBS/Tween solution and blocked with and horseradish peroxidase-conjugated secondary antibodies (Bio-Rad) for 1 h in cold room. Protein bands were visualized using ECL™ Prime Western Blotting Detection Reagents (Sigma Aldrich) Healthcare and Carestream Kodak autoradiography GBX fixer/replenisher (Sigma Aldrich) with Developer and Replenisher (Carestream) in the dark room. Results were obtained on Autoradiography Film (Santa Cruz Biotechnology). Densitometric analysis was performed by using a software program (ImageJ). […]

[2] = tested on: SH-SY5Y cells; experiment: Cytoprotection against H2O2 (100 µM), MTT; details: for Cells viability (%) ± SD after 24 h of incubation with compound and H2O2: H2O2 only 82.74%; for viability at 1 µM: Homo sapiens, 24 h, read-out: Cells viability (%) ± SD after 24 h of incubation with compound and H2O2
[3] = tested on: PARP-1; experiment: Western blot of PARP-1 cleavage, HT-29; type: cell-based, human; details: HT-29, 24 h, IC50 and 1/2IC50
Procedure: as §1

[4] = tested on: supercoiled pUC19 DNA; details: 100 µM; human Topoisomerase I
[5] = tested on: EA.hy926 cells; experiment: MTT cytotoxicity assay, EA.hy926; type: cell-based, human
Description: The EA.hy926 cells (the human umbilical vein, somatic cell hybrid) (American Type Culture Collection) are immortalized human umbilical vein endothelial cells. They have morphological, phenotypic and functional characteristics of human endothelial cells, without the limited lifespan. This cell line has been considered as a good model for anticancer drug screening and was chosen to evaluate the endothelial cytotoxicity of novel compounds.
(§2) The MTT assay was used to evaluate cell metabolic activity. The test principle is based on the determination of cell viability by measuring the metabolic activity in mitochondria. Enzymatically active mitochondria reduce the water-soluble MTT (3-(4,5-dimethylthiazol-2-yl)-2,5 diphenyltetrazoliumbromide) to blue–violet insoluble formazan. The number of viability cells is proportional to the colour intensity determined by photometric measurements (an analytical wavelength 570 nm) after dissolving the formazan in Dimethylsulfoxide (DMSO) (Serva) and Sorensen’s glycine buffer. MTT (Sigma Aldrich) was dissolved in Phosphate Buffered Saline (PBS) (PAN-Biotech) at a concentration of 0.5 mg/mL. Sorensen’s glycine buffer is made of 0.1 M glycine and 0.1 M NaCl, at pH 10.5. Studied compounds were dissolved in DMSO in order to receive stock solutions.
(§3) For the assay, cells were seeded into 96-well plates at density 10^4 cells per well and cultured for 24 h at 37 °C and 5% CO2. Then medium was removed, and cells were exposed to the 100 µL of the compound solutions over a range of concentrations (final DMSO concentration was below 0.2%) or nothing but culture medium (blank control). Pure DMSO was used as a positive control. After 24 h of incubation with the compound solutions, medium was removed and 50 µL of the MTT solution was added to each well and incubated in the dark for additional 2 h at 37 °C. Then the MTT solution was carefully removed and 100 µL of DMSO was added. Plates were incubated for 10 min at room temperature. Finally, 5 µL of Sorensen Buffer was added to each well. Plate was swayed, and the absorbance was measured by using microplate reader (Synergy H1, BioTek, Winooski, VT, USA) at a wavelength of 570 nm. The cell viability was expressed as a percentage of the control values (blank). The experiments were done in triplicate.

[6] = tested on: HT-29 cells; experiment: MTT cytotoxicity assay, HT-29; type: cell-based; details: Homo sapiens, read-out: IC50 µM ± SD against HT-29
Description: as §2, §3

[7] = tested on: A549 cells; experiment: MTT cytotoxicity assay, A549; type: cell-based, human
Description: A549 cell line (lung carcinoma from human) (European Collection of Cell Culture) and HT-29 cell line (colorectal adenocarcinoma from human) (American Type Culture Collection) were chosen to evaluate the cytotoxicity of novel compounds.
as §2, §3

[8] = tested on: HT-29 cells; experiment: Reactive oxygen species assay (DCFH-DA), HT-29; type: cell-based, human; details: compound at IC50 24 h plus H2O2, H2O2 only 1.88-fold
Procedure: After incubation, compounds were added into the wells and further incubated for next 24 h. H2O2 (1 mM) was added at 22nd h of incubation with compounds. H2O2 was used as a positive control. 30 min before the analysis, DCFH-DA (20 µM) was added to the wells. After incubation, cells were harvested and washed in PBS. Then, cells were centrifuged at 1500 rpm for 10 min. Medium was removed and cells were suspended in PBS. Analysis was performed on BD Accuri C6 Flow Cytometry (Becton–Dickinson).

[9] = tested on: SH-SY5Y cells; experiment: Cytoprotection against rotenone/oligomycin A, pre-incubation, MTT; type: cell-based, human; details: for Cytoprotection: pre-incubation with rotenone/oligomycin A;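 as to Cytoprotection: Toxic mixture Rotenone 30 µM plus Oligomycin A 10 µM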
Procedure: Rotenone with oligomycin A (R/O) were taken to induce mitochondrial ROS by blocking of complexes I and V of the mitochondrial electron transport chain. It causes free radical production and blockade of ATP synthesis. In the pre-incubation experiment, it could be assessed whether the compounds have cytoprotective properties due to the activation of endogenous antioxidant pathways. In the co-incubation could be shown whether compounds are free-radical scavengers. MTT assay was a test of choice, because in this assay mitochondrial activity is measured. […] It can be determined whether novel compound would protect cells from both apoptotic and necrotic death resulting from the increase of intracellular ROS. In both experiments, trolox was used as a reference compound. […] After this time, toxic mixture was added, and cells were maintained for an additional 24 h in the presence of the compounds.

[10] = biological target: T1, hyaluronidase from bovine testes Type I-S (Bos taurus, UniProt Q2YDK3); experiment: Hyaluronidase inhibition assay (turbidimetric); type: biochemical; details: read-out: HYAL IC50 ± SD
T1 construct: purchased Sigma Aldrich; host or cells: bovine testes (tissue-derived preparation)
T1 sequence (Q2YDK3 36-553): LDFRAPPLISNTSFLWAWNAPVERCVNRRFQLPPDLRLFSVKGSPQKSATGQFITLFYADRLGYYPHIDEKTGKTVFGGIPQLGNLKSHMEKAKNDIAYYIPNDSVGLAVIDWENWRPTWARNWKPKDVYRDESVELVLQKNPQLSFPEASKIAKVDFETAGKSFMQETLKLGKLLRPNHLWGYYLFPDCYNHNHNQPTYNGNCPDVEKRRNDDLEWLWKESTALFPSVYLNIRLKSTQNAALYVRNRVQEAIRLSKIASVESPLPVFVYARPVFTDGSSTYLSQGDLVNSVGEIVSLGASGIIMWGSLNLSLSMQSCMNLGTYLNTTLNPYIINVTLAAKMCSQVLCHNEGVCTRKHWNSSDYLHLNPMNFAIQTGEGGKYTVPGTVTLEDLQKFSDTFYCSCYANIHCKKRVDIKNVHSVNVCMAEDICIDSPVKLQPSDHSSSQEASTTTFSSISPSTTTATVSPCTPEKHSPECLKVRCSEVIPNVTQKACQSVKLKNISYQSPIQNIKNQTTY

[11] = tested on: SH-SY5Y cells; experiment: Cytoprotection against rotenone/oligomycin A, co-incubation, MTT; type: cell-based, human; details: co-incubation with rotenone/oligomycin A
Procedure: In the co-incubation assay, compounds and mixture of R/O were incubated together for 24 h. […] It turned out that none of the compounds (apart from 1i at the concentration of 0.001 µM and cytoprotection of 2.99%) had cytoprotective properties in the whole range of concentrations (Fig. 17). Compounds were not able to capture free radicals; therefore they cannot be classified as free-radical scavengers.

[12] = Homo sapiens, A549, MTT, 24 h incubation, read-out: IC50 µM ± SD against A549

O=C(NCCCCNc1c2c(nc3ccccc13)CCCC2)c1cccc(I)c1 [Compound 1f]
γ-H2AX protein level / DNA damage (in words) [1]: strongest H2AX phosphorylation | Cells viability (%) ± SD after 24 h of incubation with compound and H2O2 ([2]; H2O2 100 µM, concentration: 1b 16.26, 1c 6.79, 1e 11.75, 1f 4.26, 1i 5.90 µM): 79.45 ± 9.87% | Cells viability (%) ± SD after 24 h of incubation with compound and H2O2 ([2]; H2O2 100 µM, concentration: 1b 65.04, 1c 27.16, 1e 46.98, 1f 17.04, 1i 29.74 µM): 23.85 ± 2.08 % | viability at 1 µM [2]: 94.3 ± 7.26% | Cleaved PARP-1 (89 kDa) level (in words) [3]: lower apoptosis at IC50 concentrations | Intercalation: supercoiled pUC19 DNA band (in words) [4]: bands at the same level as EB | IC50 ([5]; Homo sapiens, EA.hy 926, 24 h, read-out: IC50 µM ± SD against EA.hy926, MTT, 24 h incubation): 11.7 µM | IC50 ([5]; read-out: IC50 µM ± SD against EA.hy926, MTT, 24 h incubation): 12.4 ± 1.31 µM | IC50 ([6]; HT-29, 24 h): 8.52 ± 0.1 µM | IC50 ([7]; Homo sapiens, A549, 24 h, read-out: IC50 µM ± SD against A549, MTT, 24 h incubation): 23.5 µM | IC50 ([7]; read-out: IC50 µM ± SD against A549, MTT, 24 h incubation): 26.4 ± 2.45 µM | Increase in ROS level (DCF fluorescence) in comparison with non-treated control [8]: 1.87 fold | Cytoprotection ([9]; 0.001 µM): 57.16% | Cytoprotection ([9]; 0.01 µM): 35.65% | Cytoprotection ([9]; 0.1 µM): 35.21% | Cytoprotection ([9]; 1 µM): 30.81% | Cytoprotective properties in the pre-incubation assay (in words) ([9]; rotenone/oligomycin A, range of concentration 1–0.001 µM): showed their action against oxidative stress in the whole range of concentrations

O=C(NCCCNc1c2c(nc3ccccc13)CCCC2)c1ccc(I)cc1 [Compound 1h]
IC50 [10]: 201 ± 8.36 µM | IC50 ([6]; HT-29, MTT, 24 h incubation): 9.4 ± 1.65 µM | IC50 [7, 12]: 21.4 ± 1.54 µM

Cc1c(C)c2c(c(C)c1O)CCC(C)(C(=O)O)O2 (centres unmarked) [Trolox, 6-hydroxy-2,5,7,8-tetramethylchroman-2-carboxylic acid, reference compound]
Cytoprotection ([11]; 0.001 µM): 9.08% | Cytoprotection ([11]; 0.01 µM): 8.18% | Cytoprotection ([11]; 0.1 µM): 4.02% | Cytoprotection ([11]; 1 µM): 6.12% | Cytoprotection against H2O2 ([2]; H2O2 100 µM, 1 µM): 96.38% | viability at 1 µM [2]: 99.4 ± 9.81% | Cytoprotection ([9]; 0.001 µM): 0.98% | Cytoprotection ([9]; 1 µM): 0.53%

COc1cc(NS(C)(=O)=O)ccc1Nc1c2ccccc2nc2ccccc12 [amsacrine, reference compound]
Intercalation: supercoiled pUC19 DNA band (in words) [4]: stronger intercalator than EB

O=C(NCCNc1c2c(nc3ccccc13)CCCC2)c1ccccc1I [Compound 1a]
IC50 [10]: 234 ± 7.9 µM | IC50 ([6]; HT-29, MTT, 24 h incubation): 17.3 ± 1.22 µM | IC50 [7, 12]: 36 ± 1.74 µM

O=c1[nH]cc(F)c(=O)[nH]1 [5-Fluorouracil, reference compound]
IC50 ([5]; Homo sapiens, EA.hy 926, MTT, 24 h incubation, read-out: IC50 µM ± SD against EA.hy926): > 1800 µM | IC50 ([6]; HT-29, MTT, 24 h incubation): 1630 ± 49.3 µM

Heparin [reference compound]
IC50 [10]: 56.4 ± 0.78 µM

O=C(NCCNc1c2c(nc3ccccc13)CCCC2)c1ccc(I)cc1 [Compound 1g]
IC50 [10]: 191 ± 10.8 µM | IC50 ([6]; HT-29, MTT, 24 h incubation): 8.16 ± 0.44 µM | IC50 [7, 12]: 20.8 ± 1.58 µM

O=C(NCCNc1c2c(nc3ccccc13)CCCC2)c1cccc(I)c1 [Compound 1d]
IC50 [10]: 300 ± 6.3 µM | IC50 ([6]; HT-29, MTT, 24 h incubation): 7.62 ± 0.19 µM | IC50 [7, 12]: 41.2 ± 1.27 µM
